Measured values taken from patent US6903132B2, “Non-peptide GnRH agents, pharmaceutical compositions and methods for their use” (Agouron Pharmaceuticals, Inc., priority 2002, dated 2005).
pKi: −log10 of the molar value. Where “and” joins values, the source holds several entries; their conditions need not be identical. Equal values may be shown once.

What was measured:
[1] = In vitro metabolism: disappearance of parent compound in liver microsomes; assay type: in vitro ADME; details: human liver microsomes; 5 uM compound, 0.5 mg/ml microsomal protein, 2 mM NADPH, 30 minutes at 37° C.
Protocol: (§1) Human, rat, dog, and monkey liver microsomes are isolated by differential centrifugation. Specimens of human liver were obtained from the International Institute for the Advancement of Medicine (Scranton, Pa.). The disappearance of the parent compound is studied in a mixture containing 5 uM compound, 0.5 mg/ml microsomal protein, and 2 mM NADPH in 50 mM K Phosphate buffer, pH 7.4. Samples are incubated for 30 minutes at 37° C. The reaction is terminated by the addition of acetonitrile and compounds analyzed by LC-MS as described above.

rat GnRH receptor = target: T1, rat GnRH receptor (Rattus norvegicus, UniProt P30969); assay: Radioligand binding assay: inhibition of binding of 125I-GnRH-A to GnRH receptors (membranes); details: competition with 125I-GnRH-A, Ki calculated from IC50 (Cheng et al.)
T1 construct: rat pituitaries (Pel Freez Biologicals, Rogers, Ark.) are homogenized in buffer A; tissue Pel Freez Biologicals; host or cells: rat pituitaries
T1 sequence (P30969 1-327): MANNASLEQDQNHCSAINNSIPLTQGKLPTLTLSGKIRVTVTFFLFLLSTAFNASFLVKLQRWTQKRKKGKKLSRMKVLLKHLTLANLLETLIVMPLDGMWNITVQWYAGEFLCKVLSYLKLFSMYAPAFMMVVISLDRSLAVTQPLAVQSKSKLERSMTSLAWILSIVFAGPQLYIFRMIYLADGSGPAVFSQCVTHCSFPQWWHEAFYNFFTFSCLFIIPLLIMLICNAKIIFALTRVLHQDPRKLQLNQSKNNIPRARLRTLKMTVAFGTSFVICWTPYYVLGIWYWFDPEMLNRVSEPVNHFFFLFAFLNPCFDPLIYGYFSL
Summary of the method: (§2)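 Membranes from HEK 293 expressing mouse or human receptor, or rat pituitaries, incubated 1 h at RT with ~0.04–0.06 nM ¹²⁵I-[des-Gly¹⁰,D-Ala⁶]GnRH ethylamide and competitor (0.1–10,000 nM) in HEPES pH 7.4 with MgCl2, EDTA, BSA. Filtration onto PEI-soaked GF/C filters, scintillation counting; Ki from IC50 by Cheng–Prusoff.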

human GnRH receptors = target: T2, human GnRH receptors (Homo sapiens, UniProt P30968); assay: as above; details: Human GnRH receptor; competition with 125I-GnRH-A; Ki calculated from IC50 (Cheng et al.)
T2 construct: expressed in transfected cells; host or cells: HEK 293
T2 sequence (P30968 1-328): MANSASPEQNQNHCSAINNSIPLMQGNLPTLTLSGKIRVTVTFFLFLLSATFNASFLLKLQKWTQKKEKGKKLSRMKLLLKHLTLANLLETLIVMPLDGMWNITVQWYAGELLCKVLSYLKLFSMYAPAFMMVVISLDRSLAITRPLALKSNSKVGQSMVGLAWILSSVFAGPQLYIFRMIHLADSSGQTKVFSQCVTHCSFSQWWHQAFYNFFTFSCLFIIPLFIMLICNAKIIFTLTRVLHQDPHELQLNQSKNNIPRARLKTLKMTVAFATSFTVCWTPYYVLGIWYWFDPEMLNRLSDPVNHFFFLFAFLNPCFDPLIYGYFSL
Summary of the method: as §2

mouse GnRH receptors = target: T3, mouse GnRH receptors (Mus musculus, UniProt Q01776); assay: as above; details: Mouse GnRH receptor; competition with 125I-GnRH-A; Ki calculated from IC50 (Cheng et al.)
T3 construct: expressed in transfected cells; host or cells: HEK 293
T3 sequence (Q01776 1-327): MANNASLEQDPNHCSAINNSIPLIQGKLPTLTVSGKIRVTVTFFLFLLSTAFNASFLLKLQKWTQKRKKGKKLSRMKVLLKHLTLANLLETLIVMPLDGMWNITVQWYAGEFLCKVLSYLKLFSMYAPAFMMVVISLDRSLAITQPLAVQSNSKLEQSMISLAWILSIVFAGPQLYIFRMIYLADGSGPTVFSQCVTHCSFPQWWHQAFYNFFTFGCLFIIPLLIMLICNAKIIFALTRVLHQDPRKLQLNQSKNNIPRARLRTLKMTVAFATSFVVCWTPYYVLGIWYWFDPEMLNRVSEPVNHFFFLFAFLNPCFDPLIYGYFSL
Summary of the method: as §2

[2] = In vitro metabolism: disappearance of parent compound in liver microsomes (female rat); assay type: in vitro ADME; details: 5 uM compound, 0.5 mg/ml microsomal protein, 2 mM NADPH, 30 minutes at 37° C.
Protocol: as §1

[3] = Pharmacokinetics in female rats; assay type: in vivo, rat; details: for FR Fp.o.: AUCp.o./AUCi.v.; for Tmax: rat, plasma, po, dose and vehicle per footnote, read-out: FR Tmax hr
Protocol: Rats (male or female, 200-225 g) are prepared with indwelling jugular vein cannula as described by Harms et al., Applied Physiol. 36:391-398 (1974), and allowed to recover overnight with free access to the standard vivarium chow and water. […] […] The blood samples are withdrawn at specific times, plasma is immediately separated and compound extracted with ethyl acetate. The samples are analyzed by LC-MS using 30-90% gradient of ACN in 50 mM ammonium acetate.
The pharmacokinetic parameters are calculated using WinNonlin software (Scientific Consulting Inc.). The bioavailability is calculated as AUCp.o./AUCi.v., where AUCp.o. and AUCi.v. are areas under the plasma concentration-time curve after oral and i.v. administration, respectively.

[4] = In vitro metabolism: disappearance of parent compound in liver microsomes (male rat); assay type: in vitro ADME; details: 5 uM compound, 0.5 mg/ml microsomal protein, 2 mM NADPH, 30 minutes at 37° C.
Protocol: as §1

[5] = 10 mg/kg as 5 mg/ml solution in 10% cremophor 90% saline
[6] = 10 mg/kg as 5 mg/ml solution in 10% DMSO 105 cremophor 80% saline

Row | Compound | Huma % p. 30′ [1] [%] | pKi (rat GnRH receptor) | pKi (human GnRH receptors) | pKi (mouse GnRH receptors) | Fem. t % rem. 30′ [2] [%] | FR Fp.o. [3, 5] [%^3] | Male t % p. 30′ [4] | Tmax [3] [min] | FR Fp.o. ([3]; 10 mg/kg as 5 mg/ml solution in 10% EtOH 10% cremophor 80% saline) [%^4] | FR Fp.o. [3, 6] [%^2]
1 | Cc1cc2c(cc1Cc1ccc(C(=O)NNc3ccc(C(F)(F)F)cn3)o1)C(C)(C)CCC2(C)C [Example C9, 5-[(3,5,5,8,8-Pentamethyl-5,6,7,8-tetrahydro-2-naphthalenyl)methyl]-N′-[5-(trifluoromethyl)-2-pyridinyl]-2-furohydrazide] | 61 | 7.33 | 7.21 | 7.52 | 14 |  | 94% |  |  | 
2 | CC(=O)c1c(NNC(=O)c2ccc(Cc3cc4c(cc3C)C(C)(C)OC4(C)C)o2)nc2c(c(C)nn2C)c1C [Example E2, N-(5-acetyl-1,3,4-trimethyl-1H-pyrazolo[3,4-b]pyridin-6yl)-5-[(1,1,3,3,6-pentamethyl-1,3-dihydro-2-benzofuran-5-yl)methyl]-2-furohydrazide] | 30 |  | 6.52 |  |  |  |  |  |  | 
3 | Cc1cc2c(cc1Cc1ccc(C(=O)NNc3cc(C)c4c(C)nn(C)c4n3)o1)C(C)(C)OC2(C)C [Example E1, 5-[(1,1,3,3,6-pentamethyl-1,3-dihydro-2-benzofuran-5-yl)methyl]-N′-(1,3,4-trimethyl-1H-pyrazolo[3,4-b]pyridin-6-yl)-2-furohydrazide] | 43 | 8.05 | 8.38 | 7.92 | 27 |  | 96% | 60 | 57 | 
4 | Cc1cc2c(cc1Cc1ccc(C(=O)NNc3nc(N)nc(C4CC4)n3)o1)C(C)(C)CCC2(C)C [Example C6, N′-(4-amino-6-cyclopropyl-1,3,5-triazin-2-yl)-5-[(3,5,5,8,8-pentamethyl-5,6,7,8-tetrahydro-2-naphthalenyl)methyl]-2-furohydrazide] | 75 | 8.22 | 7.38 | 7.74 |  |  | 95% |  |  | <1
5 | Cc1cc2c(cc1Cc1ccc(C(=O)NNc3ccc4ccccc4n3)o1)C(C)(C)CCC2(C)C [Example C5, 5-[(3,5,5,8,8-Pentamethyl-5,6,7,8-tetrahydro-2-naphthalenyl)methyl]-N′-(2-quinolinyl]-2-furohydrazide] | 52 | 7.92 | 7.60 | 8.00 |  |  |  |  |  | 

Results, then the compound that gave them:

Row | Huma % p. 30′ [1] [%] | pKi (rat GnRH receptor) | pKi (human GnRH receptors) | pKi (mouse GnRH receptors) | Fem. t % rem. 30′ [2] [%] | FR Fp.o. [3, 5] [%^3] | Male t % p. 30′ [4] | Tmax [3] [min] | FR Fp.o. ([3]; 10 mg/kg as 5 mg/ml solution in 10% EtOH 10% cremophor 80% saline) [%^4] | FR Fp.o. [3, 6] [%^2] | Compound
6 | 41 | 8.28 | 8.70 | 8.46 | 24 | 5 |  |  |  |  | 5-{[-3,5,5,6,8,8-Hexamethyl-5,6,7,8-tetrahydro-2-naphthalenyl]oxy}-N′-(1,3-dimethyl-1H-pyrazolo[3,4-b]pyridin-6-yl)-2-furo hydrazide [Example F1]
7 | 65 | 8.07 | 8.48 | 8.09 | 22 | 8 | 93% | 30 |  |  | Cc1cc2c(cc1Oc1ccc(C(=O)NNc3cc(C)c4c(C)nn(C)c4n3)o1)C(C)(C)CCC2(C)C [Example F2]
8 |  |  | 6.26 |  |  | 6 |  | 30 |  |  | Cc1cc(C)c(Cc2ccc(C(=O)NNc3cc(C)c4c(C)nn(C)c4n3)o2)c(C)c1Br [Example J2]
9 | 43 |  | 5.24 |  |  |  |  |  |  |  | Cc1cc(Cl)c(C(C)C)c(Oc2ccc(C(=O)NNc3cc(C)c4c(C)nn(C)c4n3)o2)c1 [Example I3, 5-(3-Chloro-2-isopropyl-5-methylphenoxy)-N′-(1,3,4-trimethyl-1H-pyrazolo[3,40b]pyridin-6-yl)-2-furohydrazide]
10 | 58 |  | 5.92 |  |  |  |  |  |  |  | COc1cc2c(cc1Oc1ccc(C(=O)NNc3cc(C)c4c(C)nn(C)c4n3)o1)C(C)(C)CC2=O [Example I5, 5-[(6-Methoxy-3,3-dimethyl-1-oxo-2,3-dihydro-1H-inden-5-yl)oxy]-N′-(1,3,4-trimethyl-1H-pyrazolo[3,4-b]pyridin-6-yl)-2-furohydrazide]
11 |  |  | 6.35 |  |  |  | 99% and 95% | 60 |  |  | COc1cc(C)c(Cl)c(C)c1Cc1ccc(C(=O)NNc2cc(C)c3c(C)nn(C)c3n2)o1 [Example J1]
12 |  | 8.70 | 9.05 | 8.48 |  |  |  |  |  |  | Cc1cc2c(cc1Cc1ccc(C(=O)NNc3cc(C)c4c(C)nn(C)c4n3)o1)C(C)(C)CC2(C)C [Example J15, 5-[(1,1,3,3,6-pentamethyl-2,3-dihydro-1H-inden-5-yl)methyl]-N-(1,3,4-trimethyl-1H-pyrazdo[3,4-b]Pyridin-6-yl)-2-furohydrazide]
13 | 57 | 7.70 | 7.46 | 7.30 | 9 |  | 89% | 30 |  | 4 | Cc1ccc(C(C)(C)C)cc1Cc1ccc(C(=O)NNc2cc(C)c3c(C)nn(C)c3n2)o1 [Example J7, 5-[5-(tert-butyl)-2-methylbenzyl]-N′-(1,3,4-trimethyl-1H-pyrazolo[3,4-b]pyridin-6-yl)-2-furohydrazide]
